Assays:
Experiment in all cases: relative viability (nuclei count vs DMSO), 5 days (fraction); higher = more cells survive
Trametinib + Navitoclax = compound: CC(=O)Nc1cccc(-n2c(=O)n(C3CC3)c(=O)c3c(Nc4ccc(I)cc4F)n(C)c(=O)c(C)c32)c1 [Trametinib] + CC1(C)CCC(c2ccc(Cl)cc2)=C(CN2CCN(c3ccc(C(=O)NS(=O)(=O)c4ccc(N[C@H](CCN5CCOCC5)CSc5ccccc5)c(S(=O)(=O)C(F)(F)F)c4)cc3)CC2)C1 [Navitoclax] (partner 0.5 µM)
In short: (§1)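 Lung cancer cell lines, seeded in 1536-well plates, were treated the following day by pin tool with a single drug or with five library-drug doses (not always all listed) in √10 steps on top of a fixed anchor-drug dose. Cells were fixed and nuclei stained in one step after 5 days, and nuclei were counted. Relative viability is the nuclei count for treated wells divided by that for vehicle wells, reported as medians of duplicate plates.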

Trametinib + Luminespib = compound: CC(=O)Nc1cccc(-n2c(=O)n(C3CC3)c(=O)c3c(Nc4ccc(I)cc4F)n(C)c(=O)c(C)c32)c1 [Trametinib] + CCNC(=O)c1noc(-c2cc(C(C)C)c(O)cc2O)c1-c1ccc(CN2CCOCC2)cc1 [Luminespib] (partner 0.01 µM)
In short: as §1

Trametinib + Tozasertib = compound: CC(=O)Nc1cccc(-n2c(=O)n(C3CC3)c(=O)c3c(Nc4ccc(I)cc4F)n(C)c(=O)c(C)c32)c1 [Trametinib] + Cc1cc(Nc2cc(N3CCN(C)CC3)nc(Sc3ccc(NC(=O)C4CC4)cc3)n2)n[nH]1 [Tozasertib] (partner 0.1 µM)
In short: as §1

[1] = compound: CN1C=C(C2=CC=CC=C21)/C=C\3/C4=C(C=CC=N4)NC3=O + C[C@]1(O)C[C@@H](c2nc(-c3ccc4ccc(-c5ccccc5)nc4c3)c3c(N)nccn32)C1 [Linsitinib] (partner 1 µM)
In short: as §1

Cell Line | relative viability (Trametinib + Navitoclax; first compound 0.0025 µM) | relative viability (Trametinib + Navitoclax; first compound 0.007906 µM) | relative viability (Trametinib + Navitoclax; first compound 0.025 µM) | relative viability (Trametinib + Navitoclax; first compound 0.07906 µM) | relative viability (Trametinib + Navitoclax; first compound 0.25 µM) | relative viability (Trametinib + Luminespib; first compound 0.0025 µM) | relative viability (Trametinib + Luminespib; first compound 0.007906 µM) | relative viability (Trametinib + Luminespib; first compound 0.025 µM) | relative viability (Trametinib + Luminespib; first compound 0.07906 µM) | relative viability (Trametinib + Luminespib; first compound 0.25 µM) | relative viability (Trametinib + Tozasertib; first compound 0.0025 µM) | relative viability (Trametinib + Tozasertib; first compound 0.007906 µM) | relative viability (Trametinib + Tozasertib; first compound 0.025 µM) | relative viability (Trametinib + Tozasertib; first compound 0.07906 µM) | relative viability (Trametinib + Tozasertib; first compound 0.25 µM) | relative viability ([1]; first compound 0.02 µM) | relative viability ([1]; first compound 0.06325 µM) | relative viability ([1]; first compound 0.2 µM) | relative viability ([1]; first compound 0.6325 µM) | relative viability ([1]; first compound 2 µM)
201T | 1.17 | 1.1 | 1.13 | 1.08 | 1.09 | 1.08 | 0.866 | 0.856 | 0.852 | 0.8 | 0.985 | 0.835 | 0.795 | 0.798 | 0.653 | 0.993 | 1.05 | 0.967 | 1.09 | 0.786
A549 | 1.12 | 0.81 | 0.464 | 0.281 | 0.0636 |  |  |  |  |  |  |  |  |  |  | 0.596 | 0.512 |  | 0.543 | 0.586
A-427 | 0.989 | 0.799 | 0.489 | 0.545 | 0.296 | 0.805 | 0.871 | 0.691 | 0.661 | 0.297 | 0.217 | 0.159 | 0.158 | 0.166 | 0.173 | 1.06 | 1.07 |  | 1.15 | 1.12
ABC-1 |  |  |  |  |  | 0.665 | 0.819 | 0.446 | 0.307 | 0.439 | 0.169 | 0.153 | 0.154 | 0.148 | 0.158 | 0.797 | 0.704 | 0.604 | 0.729 | 0.712
BEN | 0.0591 | 0.054 |  | 0.0541 | 0.179 | 0.269 | 0.374 | 0.154 | 0.379 | 0.377 | 0.461 | 0.497 | 0.458 | 0.602 | 0.476 | 0.847 | 0.996 | 0.823 | 0.875 | 1.03
CAL-12T | 1.04 | 0.831 | 0.554 | 0.738 | 0.492 | 0.725 | 0.29 | 0.344 | 0.309 | 0.239 | 0.275 | 0.273 | 0.196 | 0.199 | 0.202 | 0.821 | 0.787 | 0.809 | 1.05 | 0.809
COR-L23 | 0.977 | 1.02 | 1.04 | 0.694 | 0.475 | 0.638 | 0.462 | 0.306 | 0.248 | 0.236 | 0.193 | 0.208 | 0.165 | 0.178 | 0.149 | 0.924 | 0.967 | 0.865 | 1.03 | 0.865
COR-L 105 | 0.594 | 0.517 | 0.417 | 0.387 | 0.324 | 0.685 | 0.587 | 0.415 | 0.271 | 0.344 | 0.287 | 0.387 | 0.338 | 0.31 | 0.223 | 0.969 | 0.948 | 0.9 | 0.809 | 0.916
Calu-6 | 0.601 | 0.295 | 0.177 | 0.129 | 0.127 |  |  |  |  |  |  |  |  |  |  | 0.926 | 0.903 | 0.919 | 0.975 | 0.915
